Results reported in patent publication US12559492B2, “BRAF degraders” (C4 Therapeutics, Inc., priority 2020, dated 2026).

Target: BRAF^V600E protein (Homo sapiens, UniProt P15056, V600E)
Assay: HiBiT cellular BRAF V600E degradation assay
Format: cell-based
Conditions: 24 h incubation; for DC50: A375.10 cells (HiBiT tag knocked in at N-terminal of BRAF V600E), concentration at which 50% of total cellular BRAF V600E is degraded; for Emax: read-out: HiBit 24 h Emax
[1] = A375.10 cells, Emax = amount of residual protein remaining in the cell after compound treatment

BRAF^V600E protein, sequence (P15056 whole entry V600E): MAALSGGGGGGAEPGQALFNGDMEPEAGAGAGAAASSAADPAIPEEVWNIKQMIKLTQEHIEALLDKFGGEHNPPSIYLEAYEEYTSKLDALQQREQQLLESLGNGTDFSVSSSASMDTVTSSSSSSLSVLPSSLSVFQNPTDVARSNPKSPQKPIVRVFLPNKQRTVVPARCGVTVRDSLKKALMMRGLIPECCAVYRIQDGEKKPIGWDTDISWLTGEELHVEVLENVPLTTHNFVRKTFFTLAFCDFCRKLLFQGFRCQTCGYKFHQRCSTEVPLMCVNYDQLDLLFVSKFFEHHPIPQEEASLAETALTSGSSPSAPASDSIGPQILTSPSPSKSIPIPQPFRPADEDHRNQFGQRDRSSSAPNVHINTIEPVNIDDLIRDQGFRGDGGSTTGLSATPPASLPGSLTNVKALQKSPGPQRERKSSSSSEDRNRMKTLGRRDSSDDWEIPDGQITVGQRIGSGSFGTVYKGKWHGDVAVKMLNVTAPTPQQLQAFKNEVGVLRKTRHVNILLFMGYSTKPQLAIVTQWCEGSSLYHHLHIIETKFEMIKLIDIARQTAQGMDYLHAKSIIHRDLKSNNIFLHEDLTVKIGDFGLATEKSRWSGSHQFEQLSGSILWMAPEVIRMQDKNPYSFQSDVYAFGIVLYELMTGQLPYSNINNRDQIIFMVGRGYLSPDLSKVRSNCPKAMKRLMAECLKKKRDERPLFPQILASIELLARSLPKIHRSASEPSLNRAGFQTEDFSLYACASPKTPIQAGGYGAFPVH

Row | SMILES | DC50 | Emax [1] | HiBit 24 h Emax [1]
1 | O=C1CCC(c2ccc(C3CCN(CC(=O)N4CC5(C4)CN(c4ncc(-c6cnc7[nH]cc(C(=O)c8c(F)ccc(NS(=O)(=O)N9CCCC9)c8F)c7c6)cn4)C5)CC3)cc2)C(=O)N1 (stereo not drawn) [Example A118, N-[3-[5-[2-[2-[2-[4-[4-(2,6-Dioxopiperidin-3-yl)phenyl]piperidin-1-yl]acetyl]-2,6-diazaspiro[3.3]heptan-6-yl]pyrimidin-5-yl]-1H-pyrrolo[2,3-b]pyridine-3-carbonyl]-2,4-difluorophenyl]pyrrolidine-1-sulfonamide] | 29 nM | 11% | 
2 | O=C1CCC(Oc2ccc(C3CCN(CC(=O)N4CC5(C4)CN(c4ncc(-c6cnc7[nH]cc(C(=O)c8c(F)ccc(NS(=O)(=O)N9CCCC9)c8F)c7c6)cn4)C5)CC3)cc2)C(=O)N1 (stereo not drawn) [Example A119, N-[3-[5-[2-[2-[2-[4-[4-(2,6-Dioxopiperidin-3-yl)oxyphenyl]piperidin-1-yl]acetyl]-2,6-diazaspiro[3.3]heptan-6-yl]pyrimidin-5-yl]-1H-pyrrolo[2,3-b]pyridine-3-carbonyl]-2,4-difluorophenyl]pyrrolidine-1-sulfonamide] | 47 nM | 12% | 
3 | CCN(C)S(=O)(=O)Nc1ccc(F)c(C(=O)c2c[nH]c3ncc(-c4ccc(N5CCN(C(=O)CN6CCC(c7ccc(O[C@@H]8CCC(=O)NC8=O)cc7)CC6)CC5)nc4)cc23)c1F [Example A122, 5-[6-[4-[2-[4-[4-[(3R)-2,6-Dioxopiperidin-3-yl]oxyphenyl]piperidin-1-yl]acetyl]piperazin-1-yl]pyridin-3-yl]-3-[3-[[ethyl(methyl)sulfamoyl]amino]-2,6-difluorobenzoyl]-1H-pyrrolo[2,3-b]pyridine] | 32 nM | 9% | 

Molecules with a lower DC50, results first:

Row | DC50 | Emax [1] | HiBit 24 h Emax [1] | SMILES
4 | 12 nM | 8% |  | CCN(C)S(=O)(=O)Nc1ccc(F)c(C(=O)c2c[nH]c3ncc(-c4ccc(N5CCN(C(=O)CN6CCC(c7ccc(O[C@H]8CCC(=O)NC8=O)cc7)CC6)CC5)nc4)cc23)c1F [Example A121, 5-[6-[4-[2-[4-[4-[(3S)-2,6-Dioxopiperidin-3-yl]oxyphenyl]piperidin-1-yl]acetyl]piperazin-1-yl]pyridin-3-yl]-3-[3-[[ethyl(methyl)sulfamoyl]amino]-2,6-difluorobenzoyl]-1H-pyrrolo[2,3-b]pyridine]
5 | 10 nM |  | 8% | CCN(C)S(=O)(=O)Nc1ccc(F)c(C(=O)c2c[nH]c3ncc(-c4cnc(N5CCN(C(=O)NC6CCN(c7ccc(NC8CCC(=O)NC8=O)cc7F)CC6)CC5)nc4)cc23)c1F.O=C(O)C(F)(F)F (stereo not drawn) [Example A123, N-[1-[4-[(2,6-Dioxopiperidin-3-yl)amino]-2-fluorophenyl]piperidin-4-yl]-4-[5-[3-[3-[[ethyl(methyl)sulfamoyl]amino]-2,6-difluorobenzoyl]-1H-pyrrolo[2,3-b]pyridin-5-yl]pyrimidin-2-yl]piperazine-1-carboxamide; 2,2,2-trifluoroacetic acid]
6 | 8 nM | 8% |  | O=C1CCC(Nc2ccc(C3CCN(CC(=O)N4CC5(C4)CN(c4ncc(-c6cnc7[nH]cc(C(=O)c8c(F)ccc(NS(=O)(=O)N9CCCC9)c8F)c7c6)cn4)C5)CC3)cc2)C(=O)N1 (stereo not drawn) [Example A120, N-[3-[5-[2-[2-[2-[4-[4-[(2,6-Dioxopiperidin-3-yl)amino]phenyl]piperidin-1-yl]acetyl]-2,6-diazaspiro[3.3]heptan-6-yl]pyrimidin-5-yl]-1H-pyrrolo[2,3-b]pyridine-3-carbonyl]-2,4-difluorophenyl]pyrrolidine-1-sulfonamide]
